According to US20020132276A1, “FACS method for detecton of GPIIb/IIIa inhibitor dependent activators in plasma samples” (priority 1999, published 2002):
“Also recorded” adds a separate entry of the source.

Key:
platelet CD62 [1] = assay: Modified DDPASFCA using the donor's own platelets; format: cell-based; settings: healthy human donor, Compound A 200 nM
Procedure: The occurrence of DDPASs in the general population was tested by a modification of the DDPASFCA using the donor's own platelets to conduct the assay. PRP (100 μL) from healthy human donors was treated with Compound A (200 nM) or vehicle for 90 minutes. A 5μL sample was transferred to microtiter wells containing 20 μL anti-CD62-PE and samples analyzed by flow cytometry as described in Example 1. Positive samples (defined as Delta PE fluorescence of >0) were retested using the method of Example 1 (heterologous donor). 8% of donors were weakly positive (delta between 10 and 25). […] Thus, the prevalence and titer of pre-existing DDPASs is relatively low in the general population.

platelet CD62 [2] = assay: Depletion of DDPAS from plasma by platelets with Compound A, and EDTA elution, read in the DDPASFCA; format: cell-based, human
Procedure: Thrombocytopenic patient plasma was processed as described in Example 1 and Delta fluorescence is shown (FIG. 3, panel A) as a function of volume percent patient plasma. After treatment of 099016 plasma with platelets in the presence and in the absence of compound A, samples were evaluated in the DDPASFCA at a 1/3 dilution using fresh donor PRP.
Thrombocytopenic patient 099016 plasma was evaluated in the DDPASFCA as in Example 1, with the modification that 10 μL of sample, or a sample of 099016 plasma diluted into DDPASFCA-negative plasma, was combined with 20 μL donor PRP (final platelet concentration=1×10^8/mL). The signal in the DDPASFCA was proportional to the patient plasma dilution. Next, the ability of platelets, a physiologically relevant source of GPIIb/IIIa, to remove certain kinds of DDPASs was tested. DDPAS positive thrombocytopenic plasma 099016 (70 μl) was treated with fresh donor PRP (140 μL, final platelet concentration 3×10^8/mL) for 60 minutes in the presence or the absence of compound A (1 μM). Platelets were removed by centrifugation at 1000×G for 5 minutes, and the resulting plasma samples were tested in the DDPASFCA as in Example 1, with the modification that 3 μL of sample was combined with 27 μL donor PRP (final platelet concentration=1×10^8/mL) in the presence or the absence of Compound A (1 μM). […] The samples were then evaluated in the DDPASFCA.

[3] = tested on: drug-dependent anti-platelet antibody (DDAB); assay: Depletion and recovery of DDAB from patient 099016 plasma by platelets with Compound A, read in the DDAB ELISA; format: binding, human
Procedure: Thrombocytopenic patient plasma was processed as described in Example 9. After treatment of 099016 plasma with platelets in the presence and in the absence of Compound A, samples were evaluated in the DDAB ELISA (see commonly-owned pending U.S. patent application Ser. No. 09/237061, filed Jan. 26, 1999, the contents of which are herein incorporated by reference) at 3 dilutions (1/100; 1/250 and 1/500) for residual DDAB. Murine JK094 was used as a positive control for the ELISA.
Thrombocytopenic patient 099016 plasma was processed with platelets in the presence or the absence of Compound A to deplete any DDAB as described in Example 9. After treatment of 099016 plasma with platelets in the presence and in the absence of Compound A, samples were evaluated in the DDAB ELISA at 3 dilutions (1/100, 1/250 and 1/500) for residual DDAB. Murine JK094 was used as a positive control for the ELISA.

In the case of `CCCCOC(=O)N[C@@H](CNC(=O)C[C@H]1CC(c2ccc(C(=N)N)cc2)=NO1)C(=O)O` [Compound A, 2(S)-[(n-butoxycarbonyl)amino]-3-[[[3-[4-(aminoiminomethyl)phenyl]isoxazolin-5(R)-yl]methylcarbonyl]amino]propionic acid], the “Delta PE fluorescence of the significantly positive sample” value (platelet CD62 [1]) is reported as 566, the “residual DDPAS in plasma after treatment with platelets” value (platelet CD62 [2]; patient 099016 plasma, donor PRP 60 minutes, Compound A 1 μM) is reported as “depleted of the DDPAS; also recorded: specifically depleted the DDPAS” and the “DDPAS in EDTA eluate of platelets” value (platelet CD62 [2]; platelets treated with 099016 plasma with Compound A, 9 mM EDTA, 37° C., 2 hours, versus DPC43 and DPC44) is reported as “substantially positive; also recorded: elevated DDPAS”. For the same molecule, the “residual DDAB in plasma after treatment with platelets” value ([3]; patient 099016 plasma, donor platelets, Compound A, dilutions 1/100, 1/250 and 1/500) was “specifically depleted the DDAB” and the “DDAB in EDTA eluants of platelets” value ([3]; platelets treated with 099016 plasma with Compound A) was “showed DDAB; also recorded: contain a detectable DDAB”.
